# Key:
# Type in all cases: cell-based
# [1] = test system: S. aureus, E. faecalis and S. pneumoniae; assay: In vitro antibacterial action of haloaryl derivatives on standard and resistent test microorganisms; conditions: comparison within the series
# From the text: (§1) In vitro action of the novel compounds was investigated on a series of standard and resistent test microorganisms. […] In N′-(C1-C6)haloalkylcarbamoyl derivatives similar traits were observed.
# [2] = test system: test microorganisms sensitive to erythromycin; assay: In vitro antibacterial activity against erythromycin-sensitive test microorganisms
# From the text: as §1
# resistent strains = assay: In vitro antibacterial activity against resistent strains
# From the text: as §1
structure (smiles),measurement,setting,value
"CC[C@H]1OC(=O)[C@H](C)[C@@H](O[C@H]2C[C@@](C)(OC)[C@@H](O)[C@H](C)O2)[C@H](C)[C@@H](O[C@@H]2O[C@H](C)C[C@H](N(C)C)[C@H]2O)[C@](C)(O)C[C@@H](C)CN(C(=S)Nc2cccc(C(F)(F)F)c2)[C@H](C)[C@@H](O)[C@]1(C)O [Example 21, 9-deoxo-9a-N-{N′-[(3-trifluoromethyl-phenyl)thiocarbamoyl]}-9a-aza-9a-homoerythromycin A]",antibacterial in vitro activity (effectiveness),[1],the most active one
same,activity against test microorganisms sensitive to erythromycin,[2],activity against test microorganisms sensitive to erythromycin
same,activity against resistent strains,resistent strains,showed an activity against resistent strains
